From patent US6579982B1, “Pyrimidine-2,4,6-trione metalloproteinase inhibitors” (Pfizer Inc., priority 1999, dated 2003)

| melting point | SMILES |
| --- | --- |
| 182 °C | CC1(Oc2ccc(Oc3ccccc3)cc2)C(=O)NC(=O)NC1=O |
| 59 to 60 °C | CCCCC1(Oc2ccc(Oc3ccccc3)cc2)C(=O)NC(=O)NC1=O |
| 200 to 202 °C | CC1(Oc2ccc(-c3ccccc3)cc2)C(=O)NC(=O)NC1=O |

The next lines start with the compound.

| SMILES | melting point |
| --- | --- |
| CC1(Oc2cccc(-c3ccccc3)c2)C(=O)NC(=O)NC1=O | 175 °C |
| CC1(Oc2ccc(Oc3ccc(F)cc3)cc2)C(=O)NC(=O)NC1=O | 187 to 189 °C |
| CCCCC1(Oc2ccc(Oc3ccc(F)cc3)cc2)C(=O)NC(=O)NC1=O | 183 °C |
